Results from PubChem BioAssay AID2060886 (Molecular Pharmacology Branch, DTP, NCI, 2025).

Test system: 653999-131-R-J2-PDC complex spheroids, growth inhibition
Assay: Anticancer human tumor 653999-131-R-J2-PDC patient-derived lung adenocarcinoma cell line growth inhibition [RAS]
Conditions: for IC50: curve of first compound; for viability, T/C: stronger effect = lower value
Summary of the method: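 Tumour cells grown as complex spheroids with HUVEC endothelial cells and mesenchymal stem cells, treated with RAS pathway inhibitor combinations. Each agent spans half-log steps from near clinical Cmax, or 10 microM where Cmax is unknown.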
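Note: spheroids exposed to the agents for seven days before the readout.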

C=CC(=O)N1CCN(c2nc(OCC3CCCN3C)nc3c(F)c(-c4nc(N)cc(C)c4C(F)(F)F)c(Cl)cc23)C(C)C1 (centres undefined) + CCn1c(-c2cc(N3CCN(C)CC3)cnc2C(C)OC)c2c3cc(ccc31)-c1csc(n1)CC(NC(=O)C1CC1C)C(=O)N1CCCC(N1)C(=O)OCC(C)(C)C2
IC50 (second compound 0.000949 µM): > 1 µM | IC50 (second compound 0.003 µM): > 1 µM | IC50 (second compound 0.00949 µM): 0.0324 µM | IC50 (second compound 0.03 µM): < 0.00316 µM | IC50 (second compound 0.0949 µM): < 0.00316 µM | IC50 (second compound 0.3 µM): < 0.00316 µM | viability, T/C (second compound 0.000949 µM, first compound 0.00316 µM): 83.2% | viability, T/C (second compound 0.000949 µM, first compound 0.01 µM): 82.7% | viability, T/C (second compound 0.000949 µM, first compound 0.0316 µM): 82.1% | viability, T/C (second compound 0.000949 µM, first compound 0.1 µM): 78.4% | viability, T/C (second compound 0.000949 µM, first compound 0.316 µM): 92% | viability, T/C (second compound 0.000949 µM, first compound 1 µM): 86.1% | viability, T/C (second compound 0.003 µM, first compound 0.00316 µM): 57.9% | viability, T/C (second compound 0.003 µM, first compound 0.01 µM): 63% | viability, T/C (second compound 0.003 µM, first compound 0.0316 µM): 59.1% | viability, T/C (second compound 0.003 µM, first compound 0.1 µM): 65.7% | viability, T/C (second compound 0.003 µM, first compound 0.316 µM): 63.3% | viability, T/C (second compound 0.003 µM, first compound 1 µM): 75.6% | viability, T/C (second compound 0.00949 µM, first compound 0.00316 µM): 50% | viability, T/C (second compound 0.00949 µM, first compound 0.01 µM): 57.5% | viability, T/C (second compound 0.00949 µM, first compound 0.0316 µM): 50.2% | viability, T/C (second compound 0.00949 µM, first compound 0.1 µM): 40.4% | viability, T/C (second compound 0.00949 µM, first compound 0.316 µM): 40.2% | viability, T/C (second compound 0.00949 µM, first compound 1 µM): 42.6% | viability, T/C (second compound 0.03 µM, first compound 0.00316 µM): 46.5% | viability, T/C (second compound 0.03 µM, first compound 0.01 µM): 35.3% | viability, T/C (second compound 0.03 µM, first compound 0.0316 µM): 43.2% | viability, T/C (second compound 0.03 µM, first compound 0.1 µM): 32% | viability, T/C (second compound 0.03 µM, first compound 0.316 µM): 37.3% | viability, T/C (second compound 0.03 µM, first compound 1 µM): 34.9% | viability, T/C (second compound 0.0949 µM, first compound 0.00316 µM): 28.9% | viability, T/C (second compound 0.0949 µM, first compound 0.01 µM): 29.4% | viability, T/C (second compound 0.0949 µM, first compound 0.0316 µM): 26.7% | viability, T/C (second compound 0.0949 µM, first compound 0.1 µM): 38.9% | viability, T/C (second compound 0.0949 µM, first compound 0.316 µM): 38.6% | viability, T/C (second compound 0.0949 µM, first compound 1 µM): 35.9% | viability, T/C (second compound 0.3 µM, first compound 0.00316 µM): 29.5% | viability, T/C (second compound 0.3 µM, first compound 0.01 µM): 27.5% | viability, T/C (second compound 0.3 µM, first compound 0.0316 µM): 21.8% | viability, T/C (second compound 0.3 µM, first compound 0.1 µM): 32.6% | viability, T/C (second compound 0.3 µM, first compound 0.316 µM): 28.3% | viability, T/C (second compound 0.3 µM, first compound 1 µM): 26.1%

CC(=O)OC12COC1CC(O)C1(C)C(=O)C(O)C3=C(C)C(OC(=O)C(O)C(NC(=O)OC(C)(C)C)c4ccccc4)CC(O)(C(OC(=O)c4ccccc4)C21)C3(C)C (centres undefined) + C=CC(=O)N1CCN(c2nc(OCC3CCCN3C)nc3c(F)c(-c4nc(N)cc(C)c4C(F)(F)F)c(Cl)cc23)C(C)C1
IC50 (second compound 0.00316 µM): > 10 µM | IC50 (second compound 0.01 µM): > 10 µM | IC50 (second compound 0.0316 µM): > 10 µM | IC50 (second compound 0.1 µM): > 10 µM | IC50 (second compound 0.316 µM): > 10 µM | IC50 (second compound 1 µM): > 10 µM | viability, T/C (second compound 0.00316 µM, first compound 0.0316 µM): 56.6% | viability, T/C (second compound 0.00316 µM, first compound 0.1 µM): 48.1% | viability, T/C (second compound 0.00316 µM, first compound 0.316 µM): 56% | viability, T/C (second compound 0.00316 µM, first compound 1 µM): 58.8% | viability, T/C (second compound 0.00316 µM, first compound 3.16 µM): 61.7% | viability, T/C (second compound 0.00316 µM, first compound 10 µM): 68% | viability, T/C (second compound 0.01 µM, first compound 0.0316 µM): 63.7% | viability, T/C (second compound 0.01 µM, first compound 0.1 µM): 54.2% | viability, T/C (second compound 0.01 µM, first compound 0.316 µM): 57.9% | viability, T/C (second compound 0.01 µM, first compound 1 µM): 67.5% | viability, T/C (second compound 0.01 µM, first compound 3.16 µM): 62.6% | viability, T/C (second compound 0.01 µM, first compound 10 µM): 76% | viability, T/C (second compound 0.0316 µM, first compound 0.0316 µM): 58.4% | viability, T/C (second compound 0.0316 µM, first compound 0.1 µM): 59.2% | viability, T/C (second compound 0.0316 µM, first compound 0.316 µM): 49.2% | viability, T/C (second compound 0.0316 µM, first compound 1 µM): 58.7% | viability, T/C (second compound 0.0316 µM, first compound 3.16 µM): 73.4% | viability, T/C (second compound 0.0316 µM, first compound 10 µM): 66.5% | viability, T/C (second compound 0.1 µM, first compound 0.0316 µM): 59.5% | viability, T/C (second compound 0.1 µM, first compound 0.1 µM): 57.2% | viability, T/C (second compound 0.1 µM, first compound 0.316 µM): 53.7% | viability, T/C (second compound 0.1 µM, first compound 1 µM): 56.2% | viability, T/C (second compound 0.1 µM, first compound 3.16 µM): 72.5% | viability, T/C (second compound 0.1 µM, first compound 10 µM): 93.3% | viability, T/C (second compound 0.316 µM, first compound 0.0316 µM): 55.7% | viability, T/C (second compound 0.316 µM, first compound 0.1 µM): 61.3% | viability, T/C (second compound 0.316 µM, first compound 0.316 µM): 54.5% | viability, T/C (second compound 0.316 µM, first compound 1 µM): 63.5% | viability, T/C (second compound 0.316 µM, first compound 3.16 µM): 79.8% | viability, T/C (second compound 0.316 µM, first compound 10 µM): 84.1% | viability, T/C (second compound 1 µM, first compound 0.0316 µM): 53% | viability, T/C (second compound 1 µM, first compound 0.1 µM): 57.5% | viability, T/C (second compound 1 µM, first compound 0.316 µM): 62.3% | viability, T/C (second compound 1 µM, first compound 1 µM): 60.3% | viability, T/C (second compound 1 µM, first compound 3.16 µM): 62.9% | viability, T/C (second compound 1 µM, first compound 10 µM): 82.4%
